Source: patent US20250134855A1, “CO[…] AND METHODS OF USING SAME” (LYKOS THERAPEUTICS, INC., priority 2022, published 2025)
Read-outs that look alike come from different tables or passages of the source.

What was measured:
[1] = cited from earlier work
[2] = target: OATP1B1 (Homo sapiens, UniProt Q9Y6L6); test: Transporter substrate assessment, OATP1B1
[3] = target: BCRP (Homo sapiens, UniProt Q9UNQ0); test: Transporter inhibition, BCRP; conditions: not told
[4] = target: organic cation transporter (OCT1) (Homo sapiens, UniProt O15245); test: Transporter inhibition, OCT1; conditions: at supratherapeutic concentrations
[5] = target: MDR1 (Homo sapiens, UniProt P08183); test: Transporter inhibition, MDR1
[6] = test system: healthy individuals; test: Study MPKF: safety and tolerability (AEs, laboratory, vital signs); type: in vivo, human
Excerpt: (§1) The MPKF was a Phase 1, open-label, randomized sequence, multi-dose, 2-period crossover food effect study in 16 healthy individuals. The MPKF study evaluated plasma concentrations of both MDMA and the active metabolite 3,4-methylenedioxyamphetamine (MDA). Summary PK Parameters of the preliminary data was based on interim analysis are presented in Table 12 Table 12 Table 12, and Table 13 Table 13 Table 13 for MDMA and MDA, respectively.
(§2) Participants remained at the clinical research unit (CRU) for each Dosing Session from the time of check-in on the night before dosing until discharge 48 hours after dosing for collection of serial blood samples for PK analysis and safety monitoring. IMP was administered on Day 1 following the treatment sequence to which the participant was randomized. An additional outpatient visit occurred 72 hours after dosing to collect a final PK sample, commensurate with the expected PK profiles of MDMA and MDA. Safety assessments were also performed at this visit.
(§3) The washout period between Dosing Sessions was at least 14 days. If a participant experienced emesis within 4 hours of administration, they were to be withdrawn from the study and replaced with a new participant. An End of Study Visit was performed 2 to 10 days after the completion of the final Dosing Session 72-hour follow-up. An informal interim analysis was planned to be conducted after at least 5 participants completed at least 1 Dosing Session to examine PK variability.

[7] = as above; type: in vivo, human; conditions: human, plasma, oral, 120 mg, 1 participant, no AEs reported
Excerpt: as §1, §2, §3

[8] = test system: participants with PTSD of moderate or greater severity; test: MAPP2 Phase 3: CAPS-5 total severity score; type: in vivo, human; conditions: for Change from Baseline in CAPS-5 Total Severity Score, LS Mean for Treatment Difference / Change from Baseline in CAPS-5 Total Severity Score, LS Mean / CAPS-5 Total Severity Score, Mean / CAPS-5 Total Severity Score, Median / Change from Baseline in CAPS-5 Total Severity Score, Mean / Change from Baseline in CAPS-5 Total Severity Score, Median / Loss of Diagnosis, % / Non-Responder, % / Remission, % / Responder (10-point reduction in CAPS-5 Total Severity Score), %: MAPP2, mITT; for Change from Baseline in CAPS-5 Total Severity Score, LS Mean for Treatment Difference: vs placebo; for Change from Baseline in CAPS-5 Total Severity Score, LS Mean / CAPS-5 Total Severity Score, Mean / CAPS-5 Total Severity Score, Median / Change from Baseline in CAPS-5 Total Severity Score, Mean / Change from Baseline in CAPS-5 Total Severity Score, Median: de jure
Excerpt: FIG. 36 and FIG. 37 show the time course of improvement in Clinician Administered PTSD Scale for DSM-5 (CAPS-5) total severity score versus placebo. Each show a treatment difference between MDMA and placebo after 3 medication sessions with psychological intervention. […] Between the second and third treatment sessions, the difference between the groups appeared to continue to increase in both studies. The primary efficacy measure was change from baseline in the CAPS-5 total severity score at 18 weeks, which was evaluated 2 months after the final dosing session. The CAPS-5 is a 30-item, clinician-rated scale used to assess severity of PTSD symptoms and diagnostic status according to DSM-5 criteria, as described herein. Scores on the CAPS 5 range from 0 to 80, with higher scores indicating more severe PTSD symptoms. In both studies, a secondary efficacy measure was change from baseline in Sheehan Disability Scale (SDS) mean item scores at 18 weeks. The modified SDS is a 3-item, clinician-rated scale measuring the degree of functional impairment in work, family, and social life. Scores on the SDS mean items range from 0 to 10, with higher scores indicating more functional impairment. In these studies, the efficacy assessments were administered by blinded independent raters 18 to 30 days after medication sessions 1 and 2.
MAPP2 was a Phase 3 randomized, placebo-controlled, 2-arm, double-blind, multi-site study conducted to investigate the efficacy and safety of MDMA-AT in participants with PTSD of moderate or greater severity. This study included 3 experimental sessions of therapy combined with either MDMA or placebo. During Experimental Session 1, participants received a split dose of 120 mg (80 mg+40 mg). Participants received an escalated split dose of 180 mg during Experimental Sessions 2 and 3 unless there were tolerability issues or the participant declined.
The primary outcome measure, the CAPS-5, evaluated changes in PTSD symptom severity and the secondary outcome measure, the SDS, evaluated changes in functional impairment. Both measures were assessed by a blinded centralized language-specific IR pool.
A de jure estimand of treatment efficacy was used to estimate the causal effect of MDMA-AT on PTSD symptom severity as measured by the change from Baseline to Visit 19 in CAPS-5 total severity scores in the mITT analysis set. […] Differences in treatment effect among demographic, dissociative sub-type, and overnight stay subgroups were not observed.

[9] = Baseline to Primary Outcome T4 (Visit 19)
[10] = Primary Outcome CAPS-5 T4 (Visit 19)

Sequence of MDR1 (P08183 whole entry): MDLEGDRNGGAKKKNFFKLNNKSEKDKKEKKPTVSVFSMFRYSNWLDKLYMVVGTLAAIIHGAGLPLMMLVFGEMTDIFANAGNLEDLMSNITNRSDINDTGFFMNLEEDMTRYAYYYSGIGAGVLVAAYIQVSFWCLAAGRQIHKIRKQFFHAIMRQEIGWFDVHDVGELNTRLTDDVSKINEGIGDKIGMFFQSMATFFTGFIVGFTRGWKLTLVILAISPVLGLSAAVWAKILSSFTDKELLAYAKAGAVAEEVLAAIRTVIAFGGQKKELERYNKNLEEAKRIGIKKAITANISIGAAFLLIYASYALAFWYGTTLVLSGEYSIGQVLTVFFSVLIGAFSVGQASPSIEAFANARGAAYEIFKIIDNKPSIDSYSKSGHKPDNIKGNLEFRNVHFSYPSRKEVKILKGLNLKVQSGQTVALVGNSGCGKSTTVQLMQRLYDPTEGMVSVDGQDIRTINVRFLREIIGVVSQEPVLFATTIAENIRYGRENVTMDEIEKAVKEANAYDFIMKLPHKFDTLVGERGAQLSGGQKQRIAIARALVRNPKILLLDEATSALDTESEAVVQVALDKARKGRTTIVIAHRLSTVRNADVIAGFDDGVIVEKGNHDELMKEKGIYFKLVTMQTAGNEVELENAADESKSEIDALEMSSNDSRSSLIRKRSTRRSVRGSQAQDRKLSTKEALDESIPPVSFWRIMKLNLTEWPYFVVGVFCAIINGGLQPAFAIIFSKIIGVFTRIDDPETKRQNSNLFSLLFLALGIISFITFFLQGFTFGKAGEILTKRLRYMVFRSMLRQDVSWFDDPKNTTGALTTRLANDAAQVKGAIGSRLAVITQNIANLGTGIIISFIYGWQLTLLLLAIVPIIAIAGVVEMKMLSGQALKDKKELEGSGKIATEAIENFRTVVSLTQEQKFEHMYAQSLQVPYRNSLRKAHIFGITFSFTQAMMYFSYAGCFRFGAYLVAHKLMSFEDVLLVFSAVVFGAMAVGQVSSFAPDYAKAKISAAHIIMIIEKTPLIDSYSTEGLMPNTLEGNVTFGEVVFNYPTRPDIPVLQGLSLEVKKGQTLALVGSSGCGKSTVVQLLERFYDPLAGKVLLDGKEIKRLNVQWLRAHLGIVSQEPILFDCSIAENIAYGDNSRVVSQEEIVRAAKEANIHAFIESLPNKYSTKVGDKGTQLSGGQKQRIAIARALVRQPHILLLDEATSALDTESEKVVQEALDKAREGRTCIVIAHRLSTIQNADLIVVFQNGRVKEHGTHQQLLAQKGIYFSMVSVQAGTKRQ
Sequence of organic cation transporter (OCT1) (O15245 whole entry): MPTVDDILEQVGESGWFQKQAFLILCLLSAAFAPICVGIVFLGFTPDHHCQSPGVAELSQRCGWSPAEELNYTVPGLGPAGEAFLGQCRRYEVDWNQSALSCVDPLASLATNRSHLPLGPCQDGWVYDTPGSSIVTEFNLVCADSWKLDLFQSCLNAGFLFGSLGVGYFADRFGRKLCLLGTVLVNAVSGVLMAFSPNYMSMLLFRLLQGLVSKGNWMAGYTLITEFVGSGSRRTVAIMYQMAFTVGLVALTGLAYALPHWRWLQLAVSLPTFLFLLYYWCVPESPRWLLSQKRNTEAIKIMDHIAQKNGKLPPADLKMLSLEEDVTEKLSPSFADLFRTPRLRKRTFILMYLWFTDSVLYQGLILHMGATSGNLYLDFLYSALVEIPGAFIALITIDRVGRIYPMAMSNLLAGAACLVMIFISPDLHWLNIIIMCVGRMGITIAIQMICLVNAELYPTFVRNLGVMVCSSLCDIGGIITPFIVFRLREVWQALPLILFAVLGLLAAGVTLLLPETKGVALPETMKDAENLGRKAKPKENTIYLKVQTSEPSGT
Sequence of OATP1B1 (Q9Y6L6 whole entry): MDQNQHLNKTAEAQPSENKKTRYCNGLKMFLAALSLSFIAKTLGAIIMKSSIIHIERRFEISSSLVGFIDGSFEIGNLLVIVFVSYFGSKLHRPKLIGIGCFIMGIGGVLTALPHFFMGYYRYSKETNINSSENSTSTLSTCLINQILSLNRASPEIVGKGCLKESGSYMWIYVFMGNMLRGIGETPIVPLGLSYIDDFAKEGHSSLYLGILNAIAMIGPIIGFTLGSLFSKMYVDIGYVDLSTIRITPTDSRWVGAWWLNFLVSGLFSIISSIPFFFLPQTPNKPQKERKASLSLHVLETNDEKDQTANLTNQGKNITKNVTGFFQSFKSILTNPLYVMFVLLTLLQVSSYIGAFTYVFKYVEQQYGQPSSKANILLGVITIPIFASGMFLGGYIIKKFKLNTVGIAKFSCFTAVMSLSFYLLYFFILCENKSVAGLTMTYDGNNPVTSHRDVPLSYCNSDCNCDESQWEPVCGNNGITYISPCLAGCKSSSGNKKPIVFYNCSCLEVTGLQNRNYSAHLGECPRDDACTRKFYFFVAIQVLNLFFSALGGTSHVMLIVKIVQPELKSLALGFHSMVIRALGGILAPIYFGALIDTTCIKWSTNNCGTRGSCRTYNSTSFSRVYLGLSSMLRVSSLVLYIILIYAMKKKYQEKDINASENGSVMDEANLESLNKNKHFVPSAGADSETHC
Sequence of BCRP (Q9UNQ0 whole entry): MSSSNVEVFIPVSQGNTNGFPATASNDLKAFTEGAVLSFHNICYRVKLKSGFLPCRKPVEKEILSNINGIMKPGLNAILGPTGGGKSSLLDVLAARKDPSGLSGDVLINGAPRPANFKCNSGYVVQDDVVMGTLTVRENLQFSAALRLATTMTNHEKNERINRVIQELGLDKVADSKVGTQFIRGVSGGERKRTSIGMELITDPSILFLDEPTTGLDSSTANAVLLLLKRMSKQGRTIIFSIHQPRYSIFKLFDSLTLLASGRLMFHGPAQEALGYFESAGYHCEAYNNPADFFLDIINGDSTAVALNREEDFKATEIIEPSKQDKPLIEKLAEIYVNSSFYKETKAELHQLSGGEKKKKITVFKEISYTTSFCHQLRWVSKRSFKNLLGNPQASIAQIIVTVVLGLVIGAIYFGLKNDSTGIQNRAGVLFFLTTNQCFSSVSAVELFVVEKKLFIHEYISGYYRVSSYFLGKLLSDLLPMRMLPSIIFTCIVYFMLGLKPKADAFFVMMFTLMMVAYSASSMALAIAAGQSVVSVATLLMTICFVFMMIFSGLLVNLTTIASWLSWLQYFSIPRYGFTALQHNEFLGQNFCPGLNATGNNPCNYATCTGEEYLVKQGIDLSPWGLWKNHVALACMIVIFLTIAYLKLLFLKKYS

Question: Which “unchanged MDMA excreted in urine” value ([1]; oral 1.0 mg/kg MDMA) does the source give for CNC(C)Cc1ccc2c(c1)OCO2 (stereo not drawn) [MDMA, 3,4-methylenedioxymethamphetamine] here?
Answer: 8%

Question: What about the “unchanged MDMA excreted in urine” value ([1]; oral 1.6 mg/kg MDMA) of the same molecule?
Answer: 11%

Question: And the “substrate of OATP1B1” value [2]?
Answer: not a substrate

Question: What about the “inhibition of BCRP” value [3] of the same molecule?
Answer: not an inhibitor

Question: What about the “inhibition of OCT1” value [4] of the same molecule?
Answer: inhibits

Question: What about the “inhibition of MDR1” value [5] of the same molecule?
Answer: not an inhibitor

Question: And the “participants with SBP≥160 mmHg or DBP≥100 mmHg or temperature>38.3° C.” value ([6]; any timepoint)?
Answer: No participant

Question: And the “time of largest mean changes in SBP, DBP, temperature” value ([6]; fasted condition)?
Answer: 2 h

Question: What about the “time of largest mean changes in SBP, DBP, temperature” value ([6]; fed group) of the same molecule?
Answer: 4 h

Question: And the “difference in largest mean change of SBP, fasted vs fed” value ([6]; non-clinically significant)?
Answer: about +5 mmHg

Question: And the “difference in largest mean change of temperature, fasted vs fed” value ([6]; non-clinically significant)?
Answer: ~+0.05 °C

Question: And the “impact on biologic laboratory parameters” value ([6]; screening to end of study)?
Answer: no significant impact

Question: And the AUC(0-inf) ([7]; read-out: AUC0-inf at which tolerability is supported)?
Answer: 8920 ng·h/mL

Question: What about the Cmax ([7]; read-out: Cmax at which tolerability is supported) of the same molecule?
Answer: 440 ng/mL

Question: And the “onset of treatment efficacy (CAPS-5 versus placebo)” value ([8]; FIG. 36 and FIG. 37, both studies)?
Answer: after the second session

Question: And the “Change from Baseline in CAPS-5 Total Severity Score, LS Mean for Treatment Difference” value (shortened to “Change from Baseline … for Treatment Difference”) ([8]; MMRM, T2 (Visit 8))?
Answer: −4.14

Question: And the “Change from Baseline … for Treatment Difference” value ([8]; MMRM, T3 (Visit 13))?
Answer: −7.98

Question: And the “Change from Baseline … for Treatment Difference” value ([8]; MMRM, T4 (Visit 19))?
Answer: −8.91

Question: What about the “Change from Baseline in CAPS-5 Total Severity Score, LS Mean” value ([8]; MMRM, Baseline to Primary Outcome T4 (Visit 19)) of the same molecule?
Answer: −23.69

Question: What about the “Change from Baseline in CAPS-5 Total Severity Score, LS Mean” value ([8]; MMRM, Baseline to T2 (Visit 8)) of the same molecule?
Answer: −11.36

Question: What about the “Change from Baseline in CAPS-5 Total Severity Score, LS Mean” value ([8]; MMRM, Baseline to T3 (Visit 13)) of the same molecule?
Answer: −18.58

Question: And the “CAPS-5 Total Severity Score, Mean” value ([8]; Baseline CAPS-5 T1 (Visit 3))?
Answer: 39.4

Question: And the “CAPS-5 Total Severity Score, Median” value ([8]; Baseline CAPS-5 T1 (Visit 3))?
Answer: 39.0

Question: What about the “Change from Baseline in CAPS-5 Total Severity Score, Mean” value [8, 9] of the same molecule?
Answer: −23.5

Question: What about the “Change from Baseline in CAPS-5 Total Severity Score, Median” value (“Change from Baseline … Median” for short) [8, 9] of the same molecule?
Answer: −25.0

Question: And the “Change from Baseline in CAPS-5 Total Severity Score, Mean” value ([8]; Baseline to T2 (Visit 8))?
Answer: −11.3

Question: What about the “Change from Baseline … Median” value ([8]; Baseline to T2 (Visit 8)) of the same molecule?
Answer: −12.0

Question: And the “Change from Baseline in CAPS-5 Total Severity Score, Mean” value ([8]; Baseline to T3 (Visit 13))?
Answer: −18.5

Question: What about the “Change from Baseline … Median” value ([8]; Baseline to T3 (Visit 13)) of the same molecule?
Answer: −20.0

Question: What about the “CAPS-5 Total Severity Score, Mean” value ([8]; CAPS-5 T2 (Visit 8)) of the same molecule?
Answer: 28.1

Question: What about the “CAPS-5 Total Severity Score, Median” value ([8]; CAPS-5 T2 (Visit 8)) of the same molecule?
Answer: 30.0

Question: What about the “CAPS-5 Total Severity Score, Mean” value ([8]; CAPS-5 T3 (Visit 13)) of the same molecule?
Answer: 20.9

Question: And the “CAPS-5 Total Severity Score, Median” value ([8]; CAPS-5 T3 (Visit 13))?
Answer: 19.0

Question: What about the “CAPS-5 Total Severity Score, Mean” value [8, 10] of the same molecule?
Answer: 15.8

Question: And the “CAPS-5 Total Severity Score, Median” value [8, 10]?
Answer: 15.5

Question: What about the “Loss of Diagnosis, %” value ([8]; CAPS-5 T2 (Visit 8)) of the same molecule?
Answer: (39.6) %

Question: And the “Non-Responder, %” value ([8]; CAPS-5 T2 (Visit 8))?
Answer: (47.2) %

Question: What about the “Remission, %” value ([8]; CAPS-5 T2 (Visit 8)) of the same molecule?
Answer: (9.4) %

Question: What about the “Responder (10-point reduction in CAPS-5 Total Severity Score), %” value ([8]; CAPS-5 T2 (Visit 8)) of the same molecule?
Answer: (52.8) %

Question: What about the “Loss of Diagnosis, %” value ([8]; CAPS-5 T3 (Visit 13)) of the same molecule?
Answer: (60.4) %

Question: What about the “Non-Responder, %” value ([8]; CAPS-5 T3 (Visit 13)) of the same molecule?
Answer: (22.6) %

Question: And the “Remission, %” value ([8]; CAPS-5 T3 (Visit 13))?
Answer: (26.4) %

Question: What about the “Responder (10-point reduction in CAPS-5 Total Severity Score), %” value ([8]; CAPS-5 T3 (Visit 13)) of the same molecule?
Answer: (77.4) %

Question: What about the “Loss of Diagnosis, %” value [8, 10] of the same molecule?
Answer: (71.2) %

Question: What about the “Non-Responder, %” value [8, 10] of the same molecule?
Answer: (13.5) %

Question: And the “Remission, %” value [8, 10]?
Answer: (46.2) %

Question: And the “Responder (10-point reduction in CAPS-5 Total Severity Score), %” value [8, 10]?
Answer: (86.5) %

Question: What about the “change from Baseline to Visit 19 in CAPS-5 total severity scores” value ([8]; MAPP2, MMRM, de jure estimand, mITT) of the same molecule?
Answer: −23.69

Question: And the “no longer met PTSD diagnostic criteria” value ([8]; MAPP2, Visit 19)?
Answer: 71.2%

Question: And the “remission (CAPS-5 ≤11 and no longer meeting PTSD diagnostic criteria)” value ([8]; MAPP2, Visit 19)?
Answer: 46.2%

Question: And the “responders (10-point reduction in CAPS-5 total severity score)” value ([8]; MAPP2, Visit 19)?
Answer: 86.5%
